Common to all, as to format: functional
Experiment [1] addresses T1, Sentrin-specific protease 6 (Homo sapiens, UniProt Q9GZR1).
T1 sequence (Q9GZR1 whole entry): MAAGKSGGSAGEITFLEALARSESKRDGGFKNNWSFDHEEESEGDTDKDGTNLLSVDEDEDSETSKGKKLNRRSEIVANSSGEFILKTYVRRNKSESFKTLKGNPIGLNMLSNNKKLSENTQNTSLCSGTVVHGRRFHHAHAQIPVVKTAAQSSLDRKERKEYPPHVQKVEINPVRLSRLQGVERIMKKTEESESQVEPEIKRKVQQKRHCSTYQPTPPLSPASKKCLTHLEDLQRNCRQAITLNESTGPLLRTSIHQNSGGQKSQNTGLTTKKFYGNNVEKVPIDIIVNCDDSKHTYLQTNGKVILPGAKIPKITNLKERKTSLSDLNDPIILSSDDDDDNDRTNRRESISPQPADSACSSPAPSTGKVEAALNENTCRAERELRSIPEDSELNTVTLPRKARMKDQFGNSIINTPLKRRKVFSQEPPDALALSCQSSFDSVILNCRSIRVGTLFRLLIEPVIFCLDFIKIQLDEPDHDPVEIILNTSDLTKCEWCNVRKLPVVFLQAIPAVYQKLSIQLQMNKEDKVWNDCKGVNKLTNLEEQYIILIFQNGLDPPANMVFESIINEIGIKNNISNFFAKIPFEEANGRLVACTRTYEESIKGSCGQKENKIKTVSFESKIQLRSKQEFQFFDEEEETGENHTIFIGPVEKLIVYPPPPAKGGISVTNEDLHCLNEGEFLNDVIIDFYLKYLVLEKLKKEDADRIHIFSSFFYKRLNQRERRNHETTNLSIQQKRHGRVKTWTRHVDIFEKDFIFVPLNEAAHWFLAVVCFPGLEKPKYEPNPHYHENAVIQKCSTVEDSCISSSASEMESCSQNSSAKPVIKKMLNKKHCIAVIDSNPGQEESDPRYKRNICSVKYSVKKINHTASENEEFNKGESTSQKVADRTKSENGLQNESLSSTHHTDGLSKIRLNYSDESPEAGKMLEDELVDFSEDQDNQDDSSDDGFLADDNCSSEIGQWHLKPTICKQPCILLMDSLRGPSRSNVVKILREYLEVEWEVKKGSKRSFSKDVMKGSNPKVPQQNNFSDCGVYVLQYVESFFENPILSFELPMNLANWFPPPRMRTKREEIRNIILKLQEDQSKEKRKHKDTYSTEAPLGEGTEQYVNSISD

The target of experiment [2] is T2, Replicative DNA helicase DnaB (Mycobacterium tuberculosis, UniProt P9WMR3).
T2 sequence (P9WMR3 whole entry): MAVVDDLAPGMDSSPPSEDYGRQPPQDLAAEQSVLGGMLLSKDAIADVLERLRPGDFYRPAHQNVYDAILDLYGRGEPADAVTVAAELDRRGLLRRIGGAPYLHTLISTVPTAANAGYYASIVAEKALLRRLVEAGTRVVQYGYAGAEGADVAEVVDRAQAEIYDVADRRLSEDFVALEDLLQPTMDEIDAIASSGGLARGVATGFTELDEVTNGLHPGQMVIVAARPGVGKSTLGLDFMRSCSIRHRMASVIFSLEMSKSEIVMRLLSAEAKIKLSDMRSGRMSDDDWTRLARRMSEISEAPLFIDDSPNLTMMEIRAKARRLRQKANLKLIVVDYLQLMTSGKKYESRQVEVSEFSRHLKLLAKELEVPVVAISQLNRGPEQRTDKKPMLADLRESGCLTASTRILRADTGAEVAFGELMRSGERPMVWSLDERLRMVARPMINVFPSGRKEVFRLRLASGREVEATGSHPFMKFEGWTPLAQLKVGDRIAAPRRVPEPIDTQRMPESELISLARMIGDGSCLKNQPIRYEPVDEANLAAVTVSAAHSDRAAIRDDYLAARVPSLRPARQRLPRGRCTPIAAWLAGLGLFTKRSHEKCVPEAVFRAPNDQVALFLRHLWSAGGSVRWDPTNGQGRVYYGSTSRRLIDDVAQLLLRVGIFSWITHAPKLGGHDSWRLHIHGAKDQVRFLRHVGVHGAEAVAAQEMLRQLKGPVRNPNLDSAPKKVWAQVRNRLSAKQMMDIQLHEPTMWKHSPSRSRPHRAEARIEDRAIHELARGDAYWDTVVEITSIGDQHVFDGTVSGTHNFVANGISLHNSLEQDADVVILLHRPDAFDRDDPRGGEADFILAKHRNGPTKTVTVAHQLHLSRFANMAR
As to the kind of experiment: DnaB intein splicing inhibitors, dose response, biochemical, cell-free fluorescence (AID 449749).

A further experiment has as its target T3, Protein RecA (Mycobacterium tuberculosis, UniProt P9WHJ3).
T3 sequence (P9WHJ3 whole entry): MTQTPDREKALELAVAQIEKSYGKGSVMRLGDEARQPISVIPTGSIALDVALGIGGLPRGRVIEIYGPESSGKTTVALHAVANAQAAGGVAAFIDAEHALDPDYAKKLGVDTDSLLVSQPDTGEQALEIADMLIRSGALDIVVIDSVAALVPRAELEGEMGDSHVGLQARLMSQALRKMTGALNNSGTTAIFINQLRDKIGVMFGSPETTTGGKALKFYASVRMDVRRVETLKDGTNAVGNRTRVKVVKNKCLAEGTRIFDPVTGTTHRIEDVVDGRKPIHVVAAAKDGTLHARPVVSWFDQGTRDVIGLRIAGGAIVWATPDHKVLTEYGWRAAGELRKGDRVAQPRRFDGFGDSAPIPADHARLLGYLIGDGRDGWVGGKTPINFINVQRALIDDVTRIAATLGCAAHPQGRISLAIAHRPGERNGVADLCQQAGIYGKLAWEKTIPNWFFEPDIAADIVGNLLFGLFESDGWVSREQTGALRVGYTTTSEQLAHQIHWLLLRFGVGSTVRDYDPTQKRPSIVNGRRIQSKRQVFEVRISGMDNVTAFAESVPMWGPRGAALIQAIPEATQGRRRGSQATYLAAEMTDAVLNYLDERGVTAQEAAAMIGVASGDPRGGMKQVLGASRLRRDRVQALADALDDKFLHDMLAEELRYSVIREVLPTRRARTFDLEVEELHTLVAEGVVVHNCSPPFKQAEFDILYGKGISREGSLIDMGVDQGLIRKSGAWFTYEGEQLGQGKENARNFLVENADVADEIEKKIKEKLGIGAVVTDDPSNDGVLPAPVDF
As to the kind of experiment: Fluorescence Cell-Free Homogeneous Dose Retest to Identify Inhibitors of RecA-Intein Splicing Activity. [Related pubchem assays (depositor defined):AID2097, AID2223, AID489010, AID492950].

Experiment [3] addresses Mitogen-activated protein kinase kinase kinase kinase 4 (Homo sapiens, UniProt O95819).
Experiment [4] addresses Leukocyte tyrosine kinase receptor (Homo sapiens, UniProt P29376). Put plainly: Navigating the Kinome. Panel member name: LTK.

Eight compounds from ChEMBL document CHEMBL1201862, “PubChem BioAssay data set” (2004) can be followed below.

The source made the active and inactive calls.
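Throughout, for IC50: Luminescence-based dose-response confirmatory assay of SENP6 inhibition, following up an ultra-high-throughput screen.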

Mitogen-activated protein kinase kinase kinase kinase 4, sequence (O95819 whole entry): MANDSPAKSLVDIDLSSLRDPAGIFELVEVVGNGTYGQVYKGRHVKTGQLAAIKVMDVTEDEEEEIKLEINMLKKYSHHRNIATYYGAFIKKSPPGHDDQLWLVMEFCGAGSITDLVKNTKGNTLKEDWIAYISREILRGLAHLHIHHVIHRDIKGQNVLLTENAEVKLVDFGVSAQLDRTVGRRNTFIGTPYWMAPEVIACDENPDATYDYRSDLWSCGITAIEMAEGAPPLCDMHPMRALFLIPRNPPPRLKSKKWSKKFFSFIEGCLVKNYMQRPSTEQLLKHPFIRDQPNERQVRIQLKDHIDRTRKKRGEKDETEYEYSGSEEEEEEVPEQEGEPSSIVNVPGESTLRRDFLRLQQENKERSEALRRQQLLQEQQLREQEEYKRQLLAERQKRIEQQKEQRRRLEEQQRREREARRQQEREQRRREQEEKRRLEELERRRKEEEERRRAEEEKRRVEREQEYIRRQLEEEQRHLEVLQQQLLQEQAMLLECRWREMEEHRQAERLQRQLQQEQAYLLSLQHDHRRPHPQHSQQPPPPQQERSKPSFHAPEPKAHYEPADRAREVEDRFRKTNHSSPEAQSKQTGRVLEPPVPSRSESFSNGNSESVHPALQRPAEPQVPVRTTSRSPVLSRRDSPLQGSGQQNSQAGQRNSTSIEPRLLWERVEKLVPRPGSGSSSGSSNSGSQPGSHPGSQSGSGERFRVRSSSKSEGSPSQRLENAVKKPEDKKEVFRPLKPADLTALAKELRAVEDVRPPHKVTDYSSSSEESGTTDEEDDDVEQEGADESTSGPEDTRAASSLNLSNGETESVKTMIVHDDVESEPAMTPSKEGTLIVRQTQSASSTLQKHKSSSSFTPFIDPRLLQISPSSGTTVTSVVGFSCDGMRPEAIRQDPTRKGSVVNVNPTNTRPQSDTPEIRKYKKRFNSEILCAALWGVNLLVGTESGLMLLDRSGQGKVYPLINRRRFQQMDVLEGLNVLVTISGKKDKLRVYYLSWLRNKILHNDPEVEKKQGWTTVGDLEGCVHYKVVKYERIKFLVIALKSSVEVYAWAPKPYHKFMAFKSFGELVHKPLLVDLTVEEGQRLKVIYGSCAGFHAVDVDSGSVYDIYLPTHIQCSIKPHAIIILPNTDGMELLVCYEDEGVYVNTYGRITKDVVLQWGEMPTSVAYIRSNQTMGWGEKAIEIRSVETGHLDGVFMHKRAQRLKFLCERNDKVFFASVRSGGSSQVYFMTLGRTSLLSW
Leukocyte tyrosine kinase receptor, sequence (P29376 whole entry): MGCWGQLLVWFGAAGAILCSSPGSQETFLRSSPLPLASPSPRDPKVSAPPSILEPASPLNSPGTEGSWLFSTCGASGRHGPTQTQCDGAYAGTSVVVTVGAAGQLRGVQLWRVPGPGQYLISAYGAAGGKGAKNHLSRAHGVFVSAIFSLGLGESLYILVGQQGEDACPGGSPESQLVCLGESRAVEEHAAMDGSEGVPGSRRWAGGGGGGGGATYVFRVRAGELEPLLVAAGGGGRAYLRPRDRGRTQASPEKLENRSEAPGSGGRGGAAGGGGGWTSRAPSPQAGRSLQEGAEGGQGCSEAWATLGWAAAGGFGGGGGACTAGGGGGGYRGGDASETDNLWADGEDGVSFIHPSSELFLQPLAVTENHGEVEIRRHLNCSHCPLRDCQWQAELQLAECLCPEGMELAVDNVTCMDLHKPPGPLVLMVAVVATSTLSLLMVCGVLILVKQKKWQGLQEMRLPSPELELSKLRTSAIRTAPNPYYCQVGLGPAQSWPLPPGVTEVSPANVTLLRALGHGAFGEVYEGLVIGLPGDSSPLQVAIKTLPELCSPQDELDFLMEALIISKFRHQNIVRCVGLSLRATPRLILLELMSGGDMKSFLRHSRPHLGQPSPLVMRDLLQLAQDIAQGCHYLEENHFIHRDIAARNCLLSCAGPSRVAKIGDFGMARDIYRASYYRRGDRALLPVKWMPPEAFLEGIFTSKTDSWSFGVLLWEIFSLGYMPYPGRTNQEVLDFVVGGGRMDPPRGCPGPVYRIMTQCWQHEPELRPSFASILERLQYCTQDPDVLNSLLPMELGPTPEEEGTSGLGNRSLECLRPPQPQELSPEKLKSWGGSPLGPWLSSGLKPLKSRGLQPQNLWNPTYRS

The IC50 is the concentration that gives 50% inhibition. For the compound `Cc1cc([N+](=O)[O-])cc(/C=N\NC(=O)C2COc3ccccc3O2)c1O` (stereo not given), the IC50 in experiment [1] was 28400 nM (active).

As a reminder, the AC50 is the concentration at which the activity in the assay is half-maximal. For orientation: EC50 means the concentration needed to bring the measured effect to its halfway point. For `CC(C)(C)c1cc[n+](C2=C([N-]S(=O)(=O)c3cccs3)C(=O)c3ccccc3C2=O)cc1`, the concentration at half-maximal activity (AC50) in experiment [2] is 980 nM (active). The IC50 in experiment [1] was 5530 nM (active). In addition, the 50% effective concentration (EC50) at Protein RecA is 950 nM (active).

Regarding `CCc1ccc(S(=O)(=O)/N=C2\C=C(Nc3ccc(O)cc3)C(=O)c3ccccc32)cc1`, the AC50 in experiment [2] is 416 nM (active). Also, the EC50 on Protein RecA was 306 nM (active).

As usually defined, the Ki is the dissociation constant of the complex between target and ligand, obtained from inhibition or displacement. Take `Cc1ccc(F)c(NC(=O)Nc2ccc(-c3cccc4[nH]nc(N)c34)cc2)c1` [LINIFANIB]: the Ki is > 5010 nM (inactive) in experiment [3] and 1000 nM (active) in experiment [4].

With `CCCNC(=O)c1c(N)n(CC2CCCO2)c2nc3ccccc3nc12` (stereo not given), the IC50 in experiment [1] was 2010 nM (active).

On to `COc1c(-c2nc3ccccc3[nH]2)c(O)cc2oc(C)cc(=O)c12`, for which the inhibitory constant (Ki) was 5010 nM (active) in experiment [3] and 158 nM (active) in experiment [4]. In the same order, the values of `COC(=O)c1c(N)nc2ccccn12` are 12600 nM (active) and 10000 nM (active). For `O=C1/C(=C\c2cccc(O)c2O)SC(=S)N1Cc1ccccc1`, the AC50 in experiment [2] is > 380000 nM (inactive). Besides, the 50% effective concentration (EC50) at Protein RecA was 1950 nM (active).
